Experimental data published in ChEMBL document CHEMBL3046347, “Synthesis and biological evaluation of novel curcumin analogues as anti-inflammatory, anti-cancer and anti-oxidant agents” (Med Chem Res, 2012).

Columns and labels:
THP-1 [1] = assay: Anti-inflammatory activity in Homo sapiens (human) THP1 cells assessed as inhibition of LPS-induced IL6 production at 1 uM incubated for 30 min prior to LPS-challenge measured after 24 hr by ELISA; format: functional
[2] = Cytotoxicity against Homo sapiens (human) […] cells at 1 uM; format: cell-based
THP-1 [3] = assay: Anti-inflammatory activity in Homo sapiens (human) THP1 cells assessed as inhibition of LPS-induced TNFalpha production at 1 uM incubated for 30 min prior to LPS-challenge measured after 24 hr by ELISA; format: functional
[4] = Antioxidant activity assessed as reduction of potassium ferricynide at 1 mM after 10 min by spectrophotometric analysis; format: functional; design: scale not given: the % may be the effect or the level left
[5] = Antioxidant activity assessed as hydroxyl radical scavenging activity at 1 mM by spectrophotometric analysis; format: functional
[6] = target: T1, Prostaglandin G/H synthase 1 (Ovis aries) (UniProt P05979); details: at 1 µM;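 also: colorimetric read-out, measured after 5 min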
T1 sequence (whole entry): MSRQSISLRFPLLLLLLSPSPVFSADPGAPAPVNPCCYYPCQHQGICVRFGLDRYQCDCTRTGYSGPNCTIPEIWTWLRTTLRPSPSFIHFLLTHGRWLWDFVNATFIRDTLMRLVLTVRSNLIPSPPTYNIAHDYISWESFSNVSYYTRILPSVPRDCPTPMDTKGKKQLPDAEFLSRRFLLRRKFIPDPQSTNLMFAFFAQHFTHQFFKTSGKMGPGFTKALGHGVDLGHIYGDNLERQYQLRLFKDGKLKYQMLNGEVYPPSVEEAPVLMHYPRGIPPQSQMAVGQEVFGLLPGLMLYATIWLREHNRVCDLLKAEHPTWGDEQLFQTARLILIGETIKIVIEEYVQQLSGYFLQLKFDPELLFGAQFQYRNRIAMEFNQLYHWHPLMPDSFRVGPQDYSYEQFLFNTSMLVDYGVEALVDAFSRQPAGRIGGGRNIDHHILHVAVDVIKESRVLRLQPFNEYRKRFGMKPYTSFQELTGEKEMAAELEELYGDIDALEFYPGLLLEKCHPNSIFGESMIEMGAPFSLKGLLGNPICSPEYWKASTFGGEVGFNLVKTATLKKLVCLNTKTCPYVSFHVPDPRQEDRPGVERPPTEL
Description: Inhibition of Ovis aries (sheep) COX1 at 1 uM after 5 min by colorimetric analysis

Trypsin (Homo sapiens) = Trypsin (Homo sapiens) (UniProt P07477+P07478+P35030); assay: Inhibition of trypsin (unknown origin) using bovine serum albumin as substrate at 1 uM incubated for 20 min prior to substrate addition measured after 25 min by Lowry method; format: protein assay
HCT-116 [7] = assay: Cytotoxicity against Homo sapiens (human) HCT116 cells at 10 uM after 48 hr by propidium iodide-based fluorometric assay; format: functional; details: HCT-116, 48 h, read-out: GI
THP-1 [8] = assay: Anti-inflammatory activity in Homo sapiens (human) THP1 cells assessed as inhibition of LPS-induced IL6 production at 10 uM incubated for 30 min prior to LPS-challenge measured after 24 hr by ELISA; format: functional
[9] = test system: Radical scavenging activity; assay: Antioxidant activity assessed as DPPH radical scavenging activity at 1 uM after 20 min by spectrophotometric analysis; format: functional
[10] = Cytotoxicity against Homo sapiens (human) […] cells at 10 uM; format: cell-based
Calu-1 [11] = assay: Cytotoxicity against Homo sapiens (human) Calu1 cells at 10 uM after 48 hr by propidium iodide-based fluorometric assay; format: functional; details: Calu-1, 48 h, read-out: GI
PANC-1 [12] = assay: Cytotoxicity against Homo sapiens (human) PANC1 cells at 10 uM after 48 hr by propidium iodide-based fluorometric assay; format: functional; details: PANC-1, 48 h, read-out: GI
[13] = Antioxidant activity assessed as reduction of potassium ferricynide at 1 uM after 10 min by spectrophotometric analysis; format: functional; design: scale not given: the % may be the effect or the level left
ACHN [14] = assay: Cytotoxicity against Homo sapiens (human) ACHN cells at 10 uM after 48 hr by propidium iodide-based fluorometric assay; format: functional; details: read-out: GI
[15] = target: T2, Prostaglandin G/H synthase 2 (Ovis aries) (UniProt P79208); assay: Inhibition of Ovis aries (sheep) COX2 at 1 uM after 5 min by colorimetric analysis
T2 sequence (whole entry): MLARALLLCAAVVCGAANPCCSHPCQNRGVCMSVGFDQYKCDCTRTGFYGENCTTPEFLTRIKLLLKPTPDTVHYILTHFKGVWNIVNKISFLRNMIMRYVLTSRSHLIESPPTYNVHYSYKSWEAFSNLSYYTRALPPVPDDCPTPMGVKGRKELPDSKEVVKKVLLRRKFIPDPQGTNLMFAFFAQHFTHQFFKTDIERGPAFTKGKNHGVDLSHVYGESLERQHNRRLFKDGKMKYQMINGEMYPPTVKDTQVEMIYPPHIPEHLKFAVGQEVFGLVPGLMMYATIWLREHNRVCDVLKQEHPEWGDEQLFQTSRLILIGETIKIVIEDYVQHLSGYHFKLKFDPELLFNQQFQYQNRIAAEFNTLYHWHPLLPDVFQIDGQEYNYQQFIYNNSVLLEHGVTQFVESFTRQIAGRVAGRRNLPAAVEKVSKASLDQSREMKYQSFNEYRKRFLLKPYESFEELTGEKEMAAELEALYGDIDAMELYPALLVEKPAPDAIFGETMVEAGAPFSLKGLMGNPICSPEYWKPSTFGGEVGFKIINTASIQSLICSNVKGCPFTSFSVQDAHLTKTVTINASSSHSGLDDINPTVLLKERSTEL

[16] = target: T3, Beta-glucuronidase (Homo sapiens) (UniProt P08236); assay: Inhibition of beta-glucuronidase (unknown origin) using p-nitrophenyl-beta-D-glucopyranosiduronic acid as substrate at 1 uM after 30 min by spectrophotometric analysis
T3 sequence (whole entry): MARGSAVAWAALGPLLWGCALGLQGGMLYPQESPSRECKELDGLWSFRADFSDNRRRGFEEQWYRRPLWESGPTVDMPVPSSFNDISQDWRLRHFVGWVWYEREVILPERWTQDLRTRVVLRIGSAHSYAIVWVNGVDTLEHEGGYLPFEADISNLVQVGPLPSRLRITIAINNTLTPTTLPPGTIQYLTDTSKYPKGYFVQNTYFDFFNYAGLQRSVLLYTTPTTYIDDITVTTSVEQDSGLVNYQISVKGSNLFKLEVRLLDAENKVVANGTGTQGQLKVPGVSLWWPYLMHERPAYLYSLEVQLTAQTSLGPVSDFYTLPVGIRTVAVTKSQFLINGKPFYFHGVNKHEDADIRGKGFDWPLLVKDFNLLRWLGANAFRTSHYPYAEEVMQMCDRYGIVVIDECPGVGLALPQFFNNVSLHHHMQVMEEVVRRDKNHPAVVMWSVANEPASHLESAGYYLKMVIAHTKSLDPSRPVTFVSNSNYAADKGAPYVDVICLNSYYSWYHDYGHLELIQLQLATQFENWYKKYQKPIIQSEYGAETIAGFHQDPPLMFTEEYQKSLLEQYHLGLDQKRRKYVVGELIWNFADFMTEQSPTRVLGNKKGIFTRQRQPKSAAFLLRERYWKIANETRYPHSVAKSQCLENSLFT

[17] = Cytotoxicity against Homo sapiens (human) H460 cells at 10 uM after 48 hr by propidium iodide-based fluorometric assay; format: functional; details: NCI-H460, 48 h, read-out: GI
[18] = Antioxidant activity assessed as hydroxyl radical scavenging activity at 1 uM by spectrophotometric analysis; format: functional
THP-1 [19] = assay: Anti-inflammatory activity in Homo sapiens (human) THP1 cells assessed as inhibition of LPS-induced TNFalpha production at 10 uM incubated for 30 min prior to LPS-challenge measured after 24 hr by ELISA; format: functional
Calu-1 [20] = assay: Cytotoxicity against Homo sapiens (human) Calu1 cells at 700 nM after 48 hr by propidium iodide-based fluorometric assay; format: functional; details: Calu-1, 48 h, read-out: GI
HCT-116 [21] = assay: Cytotoxicity against Homo sapiens (human) HCT116 cells at 700 nM after 48 hr by propidium iodide-based fluorometric assay; format: functional; details: HCT-116, 48 h, read-out: GI
PANC-1 [22] = assay: Cytotoxicity against Homo sapiens (human) PANC1 cells at 700 nM after 48 hr by propidium iodide-based fluorometric assay; format: functional; details: PANC-1, 48 h, read-out: GI
ACHN [23] = assay: Cytotoxicity against Homo sapiens (human) ACHN cells at 700 nM after 48 hr by propidium iodide-based fluorometric assay; format: functional; details: read-out: GI
[24] = Cytotoxicity against Homo sapiens (human) H460 cells at 700 nM after 48 hr by propidium iodide-based fluorometric assay; format: functional; details: NCI-H460, 48 h, read-out: GI
HCT-116 [25] = assay: Cytotoxicity against Homo sapiens (human) HCT116 cells at 500 nM after 48 hr by propidium iodide-based fluorometric assay; format: functional; details: HCT-116, 48 h, read-out: GI
[26] = Cytotoxicity against Homo sapiens (human) H460 cells at 500 nM after 48 hr by propidium iodide-based fluorometric assay; format: functional; details: NCI-H460, 48 h, read-out: GI
PANC-1 [27] = assay: Cytotoxicity against Homo sapiens (human) PANC1 cells at 500 nM after 48 hr by propidium iodide-based fluorometric assay; format: functional; details: PANC-1, 48 h, read-out: GI
ACHN [28] = assay: Cytotoxicity against Homo sapiens (human) ACHN cells at 500 nM after 48 hr by propidium iodide-based fluorometric assay; format: functional; details: read-out: GI
Calu-1 [29] = assay: Cytotoxicity against Homo sapiens (human) Calu1 cells at 500 nM after 48 hr by propidium iodide-based fluorometric assay; format: functional; details: Calu-1, 48 h, read-out: GI

inhibition [6] [%]	inhibition (Trypsin (Homo sapiens)) [%]	inhibition [15] [%]	inhibition [16] [%]	Compound	inhibition of growth at 10 µM (HCT-116 [7]) [%]	inhibition at 10 µM (THP-1 [8]) [%]	Activity [9] [%]	Activity [10] [%]	inhibition of growth at 10 µM (Calu-1 [11]) [%]	inhibition of growth at 10 µM (PANC-1 [12]) [%]	Activity [13] [%]	inhibition of growth at 10 µM (ACHN [14]) [%]	inhibition of growth at 10 µM [17] [%]	Activity [18] [%]	inhibition at 10 µM (THP-1 [19]) [%]	further results
–	–	–	–	C[C@@H]1C[C@H]2[C@@H]3CCC4=CC(=O)C=C[C@]4(C)[C@@]3(F)[C@@H](O)C[C@]2(C)[C@@]1(O)C(=O)CO [DEXAMETHASONE]	–	–	–	–	–	–	–	–	–	–	–	inhibition at 1 µM (THP-1 [1]): 94%; Activity [2]: 0%; inhibition at 1 µM (THP-1 [3]): 72%
–	–	–	–	O=C1O[C@H]([C@@H](O)CO)C(O)=C1O	–	–	–	–	–	–	–	–	–	–	–	Activity [4]: 78.9%; Activity [5]: 45.9%
64.6	69.6	85.8	82.5	COc1cc(OC)c(/C=C/C(=O)c2cccc(NC(=O)c3ccc(C(C)(C)C)cc3)c2)c(OC)c1Br	10	96	43.6	56	32	37	36.8	35	51	27.3	83	–
59.8	63.5	82.5	72.9	COc1cc(OC)c(/C=C/C(=O)c2cccc(NC(=O)c3cccc(F)c3)c2)c(OC)c1Br	26	93	43.3	51	31	32	39.9	33	33	32.2	78	–
27.8	41.4	55.4	44.7	COc1cc(OC)c(/C=C/C(=O)c2cccc(NC(=O)c3cccs3)c2)c(OC)c1Br	98	96	35.3	53	85	89	32.7	82	72	49.3	80	–
–	–	–	–	CN1CC[C@H](c2c(O)cc(O)c3c(=O)cc(-c4ccccc4Cl)oc23)[C@H](O)C1 [ALVOCIDIB]	–	–	–	–	–	–	–	–	–	–	–	inhibition of growth at 0.7 µM (Calu-1 [20]): 82%; inhibition of growth at 0.7 µM (HCT-116 [21]): 83%; inhibition of growth at 0.7 µM (PANC-1 [22]): 68%; inhibition of growth at 0.7 µM (ACHN [23]): 73%; inhibition of growth at 0.7 µM [24]: 73%
–	–	–	–	Nc1ccn([C@@H]2O[C@H](CO)[C@@H](O)C2(F)F)c(=O)n1 [GEMCITABINE]	–	–	–	–	–	–	–	–	–	–	–	inhibition of growth at 0.5 µM (HCT-116 [25]): 86%; inhibition of growth at 0.5 µM [26]: 79%; inhibition of growth at 0.5 µM (PANC-1 [27]): 78%; inhibition of growth at 0.5 µM (ACHN [28]): 84%; inhibition of growth at 0.5 µM (Calu-1 [29]): 87%
